PubChem BioAssay AID278 (DTP/NCI, 2004)
Several values for one entry are separate records, joined by “and”; a condition that tells them apart may be missing. Equal values may be shown once. Results filed as inconclusive are left out.

System: nude mice, A549 intrarenal xenograft, tumor weight change
Test: NCI In Vivo Anticancer Drug Screen. Data for tumor model A549 Human Adenocarcinoma of Lung with characteristics of Type II Alveolar Epithelial cells (intrarenal inoculation) in NU/NU BALB/C (nude) mice
Details: endpoint: mean tumor weight change, higher = larger tumour
Summary of the method: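 Activity is expressed as T/C: the treated-group value over the vehicle-treated control value. The measure was survival or tumor size in mice carrying transplantable tumors.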

[1] = dose: 150.0 mg/kg/injection, schedule: Q04DX003 (ip), vehicle: saline with Tween-80
[2] = dose: 300.0 mg/kg/injection, schedule: Q04DX003 (ip), vehicle: saline with Tween-80
[3] = dose: 600.0 mg/kg/injection, schedule: Q04DX003 (ip), vehicle: saline with Tween-80
[4] = dose: 75.0 mg/kg/injection, schedule: Q04DX003 (ip), vehicle: Klucel (hydroxypropylcellulose) (HPC)
[5] = dose: 150.0 mg/kg/injection, schedule: Q04DX003 (ip), vehicle: Klucel (hydroxypropylcellulose) (HPC)
[6] = dose: 300.0 mg/kg/injection, schedule: Q04DX003 (ip), vehicle: Klucel (hydroxypropylcellulose) (HPC)
[7] = dose: 125.0 mg/kg/injection, schedule: Q04DX003 (ip), vehicle: saline with Tween-80
[8] = dose: 250.0 mg/kg/injection, schedule: Q04DX003 (ip), vehicle: saline with Tween-80
[9] = dose: 500.0 mg/kg/injection, schedule: Q04DX003 (ip), vehicle: saline with Tween-80
[10] = dose: 1200.0 mg/kg/injection, schedule: Q04DX003 (ip), vehicle: saline with Tween-80
[11] = dose: 37.5 mg/kg/injection, schedule: Q04DX003 (ip), vehicle: saline with Tween-80
[12] = dose: 75.0 mg/kg/injection, schedule: Q04DX003 (ip), vehicle: saline with Tween-80

## COc1cc2c(cc1OC)[C@@H]1C(=O)c3ccc4c(c3O[C@@H]1CO2)C[C@H](C(C)C)O4
dose: 21.25 mg/kg/injection, schedule: Q04DX003 (ip), vehicle: Klucel (hydroxypropylcellulose) (HPC)
  T/C: 90 % of control
dose: 42.5 mg/kg/injection, schedule: Q04DX003 (ip), vehicle: Klucel (hydroxypropylcellulose) (HPC)
  T/C: 87 % of control
dose: 85.0 mg/kg/injection, schedule: Q04DX003 (ip), vehicle: Klucel (hydroxypropylcellulose) (HPC)
  T/C: 37 % of control

## Nc1ccn([C@@H]2C=C(CO)[C@@H](O)[C@H]2O)c(=O)n1
dose: 0.67 mg/kg/injection, schedule: Q01DX009 (ip), vehicle: saline
  T/C: 58 % of control
dose: 1.0 mg/kg/injection, schedule: Q01DX009 (ip), vehicle: saline
  T/C: 20 % of control and 40 % of control
dose: 1.5 mg/kg/injection, schedule: Q01DX009 (ip), vehicle: saline
  T/C: -59 % of control
dose: 2.0 mg/kg/injection, schedule: Q01DX009 (ip), vehicle: saline
  T/C: 8 % of control

## CO[C@@H]1C2=CC=CC=C[C@H]2n2c(=O)n(C)c(=O)n21
dose: 37.5 mg/kg/injection, schedule: Q04DX003 (ip), vehicle: water
  T/C: 223 % of control
dose: 75.0 mg/kg/injection, schedule: Q04DX003 (ip), vehicle: other
  T/C: 32 % of control
dose: 75.0 mg/kg/injection, schedule: Q04DX003 (ip), vehicle: water
  T/C: 195 % of control
dose: 150.0 mg/kg/injection, schedule: Q04DX003 (ip), vehicle: other
  T/C: 74 % of control
dose: 150.0 mg/kg/injection, schedule: Q04DX003 (ip), vehicle: water
  T/C: 158 % of control

## CCN(CC)c1ccc2[nH]c3c(C(N)=O)cc(=O)c(=O)c=3oc2c1
[1]
  T/C: 84 % of control
[2]
  T/C: 96 % of control

## O=C(Nc1cc(Cl)ccc1C(=O)O)c1cccc(C[n+]2ccccc2)c1
[1]
  T/C: 161 % of control
[2]
  T/C: 86 % of control
[3]
  T/C: 20 % of control

## CN(C)c1ccc2c(SCC(=O)OCC(=O)[C@@]3(O)CC[C@H]4[C@@H]5CCC6=CC(=O)C=C[C@]6(C)[C@H]5C(=O)C[C@@]43C)c3ccc(N(C)C)cc3nc2c1
[4]
  T/C: 52 % of control
[5]
  T/C: 62 % of control
[6]
  T/C: 96 % of control

## ClCCCSSCCCCl
dose: 62.5 mg/kg/injection, schedule: Q04DX003 (ip), vehicle: saline with Tween-80
  T/C: 56 % of control
[7]
  T/C: 76 % of control
[8]
  T/C: 81 % of control
[9]
  T/C: 82 % of control

## NC(=S=O)C(N)=S=O
[7]
  T/C: 97 % of control
[8]
  T/C: 98 % of control
[9]
  T/C: 100 % of control

## CN1COc2c(n(C)c(=O)[nH]c2=O)C1
dose: 150.0 mg/kg/injection, schedule: Q04DX003 (ip), vehicle: suspension in saline
  T/C: 97 % of control
dose: 300.0 mg/kg/injection, schedule: Q04DX003 (ip), vehicle: suspension in saline
  T/C: 46 % of control
dose: 600.0 mg/kg/injection, schedule: Q04DX003 (ip), vehicle: suspension in saline
  T/C: 88 % of control
dose: 1200.0 mg/kg/injection, schedule: Q04DX003 (ip), vehicle: suspension in saline
  T/C: 67 % of control

## Cn1c(=S)sc2nc3ccccc3n2c1=S
dose: 30.0 mg/kg/injection, schedule: Q04DX003 (ip), vehicle: saline with Tween-80
  T/C: 83 % of control
dose: 60.0 mg/kg/injection, schedule: Q04DX003 (ip), vehicle: saline with Tween-80
  T/C: 50 % of control
dose: 120.0 mg/kg/injection, schedule: Q04DX003 (ip), vehicle: saline with Tween-80
  T/C: 73 % of control

## COc1cc(C)c(C2NC(=O)c3ccccc3N2)cc1C (configuration not stated)
[4]
  T/C: 5 % of control
dose: 129.6 mg/kg/injection, schedule: Q04DX003 (ip), vehicle: Klucel (hydroxypropylcellulose) (HPC)
  T/C: 161 % of control
[5]
  T/C: 47 % of control
[6]
  T/C: 6 % of control
dose: 360.0 mg/kg/injection, schedule: Q04DX003 (ip), vehicle: Klucel (hydroxypropylcellulose) (HPC)
  T/C: 112 % of control
dose: 1000.0 mg/kg/injection, schedule: Q04DX003 (ip), vehicle: Klucel (hydroxypropylcellulose) (HPC)
  T/C: 65 % of control

## CCOc1ccc(-c2nc3ccc(-c4nc5ccc(N6CCN(C)CC6)cc5[nH]4)cc3[nH]2)cc1
dose: 6.25 mg/kg/injection, schedule: Q04DX003 (ip), vehicle: saline
  T/C: 155 % of control
dose: 25.0 mg/kg/injection, schedule: Q04DX003 (ip), vehicle: saline
  T/C: 101 % of control
dose: 50.0 mg/kg/injection, schedule: Q04DX003 (ip), vehicle: saline
  T/C: 171 % of control

## COC(=O)C1(F)C(=O)NC(=O)NC1OC (configuration not stated)
dose: 400.0 mg/kg/injection, schedule: Q04DX003 (ip), vehicle: Klucel (hydroxypropylcellulose) (HPC)
  T/C: 115 % of control
dose: 800.0 mg/kg/injection, schedule: Q04DX003 (ip), vehicle: Klucel (hydroxypropylcellulose) (HPC)
  T/C: 116 % of control
dose: 1600.0 mg/kg/injection, schedule: Q04DX003 (ip), vehicle: Klucel (hydroxypropylcellulose) (HPC)
  T/C: 94 % of control

## NC(=O)c1[nH]cnc1O
[1]
  T/C: 151 % of control

## Cc1cc(Br)c2nsnc2c1[N+](=O)[O-]
[1]
  T/C: 7 % of control and 26 % of control
[10]
  T/C: 38 % of control

## CC1Oc2cc3c(-c4c(O)cc(O)c5c(O)c6c(cc45)OC(C)C(C)C6=O)c(O)cc(O)c3c(O)c2C(=O)C1C (configuration not stated)
dose: 0.19 mg/kg/injection, schedule: Q04DX003 (ip), vehicle: suspension in saline
  T/C: 60 % of control
dose: 0.38 mg/kg/injection, schedule: Q04DX003 (ip), vehicle: suspension in saline
  T/C: 51 % of control
dose: 0.75 mg/kg/injection, schedule: Q04DX003 (ip), vehicle: suspension in saline
  T/C: 83 % of control
dose: 3.0 mg/kg/injection, schedule: Q04DX003 (ip), vehicle: suspension in saline
  T/C: 63 % of control
dose: 6.0 mg/kg/injection, schedule: Q04DX003 (ip), vehicle: suspension in saline
  T/C: 77 % of control

## Nc1ccn([C@@H](C=O)C[C@@H](C=O)CO)c(=O)n1
[11]
  T/C: 42 % of control
[12]
  T/C: 245 % of control
[1]
  T/C: 66 % of control
[2]
  T/C: 216 % of control and 82 % of control
[3]
  T/C: 48 % of control
[10]
  T/C: 26 % of control

## [NH-]C(CCC(N)=O)C(=O)O.[NH-]C(CCC(N)=O)C(=O)O.[Zn+2] (configuration not stated)
dose: 25.0 mg/kg/injection, schedule: Q04DX003 (ip), vehicle: saline with Tween-80
  T/C: 83 % of control
dose: 50.0 mg/kg/injection, schedule: Q04DX003 (ip), vehicle: saline with Tween-80
  T/C: 29 % of control
dose: 100.0 mg/kg/injection, schedule: Q04DX003 (ip), vehicle: saline with Tween-80
  T/C: 54 % of control

## COc1cc(C2=NCCc3cc4c(cc32)OCO4)cc(OC)c1OC
dose: 37.5 mg/kg/injection, schedule: Q04DX003 (ip), vehicle: saline + alcohol
  T/C: 73 % of control
dose: 75.0 mg/kg/injection, schedule: Q04DX003 (ip), vehicle: saline + alcohol
  T/C: 49 % of control
dose: 150.0 mg/kg/injection, schedule: Q04DX003 (ip), vehicle: saline + alcohol
  T/C: 31 % of control

## S=C1CCCCN1
dose: 75.0 mg/kg/injection, schedule: Q04DX003 (ip), vehicle: distilled water + Tween-80 + alcohol
  T/C: 86 % of control
dose: 150.0 mg/kg/injection, schedule: Q04DX003 (ip), vehicle: distilled water + Tween-80 + alcohol
  T/C: 69 % of control

## CC1=C(C(N)=O)C(c2ccccc2)NC(=S)N1 (configuration not stated)
dose: 37.5 mg/kg/injection, schedule: Q04DX003 (ip), vehicle: Klucel (hydroxypropylcellulose) (HPC)
  T/C: 66 % of control
[4]
  T/C: 92 % of control
[5]
  T/C: 83 % of control
[6]
  T/C: 181 % of control

## CCCC1CCC(=C2C(=O)CCC2=O)O1 (configuration not stated)
[11]
  T/C: 247 % of control
[12]
  T/C: 68 % of control
[1]
  T/C: 109 % of control
[2]
  T/C: 50 % of control

## COC12[C@@H]3N[C@@H]3CN1C1=C(C(=O)C(NCCSSCCNC3=C(C)C(=O)C4=C(C3=O)C(COC(N)=O)[C@]3(OC)C5N[C@@H]5CN43)=C(C)C1=O)[C@@H]2COC(N)=O (some centres not stated)
dose: 1.57 mg/kg/injection, schedule: Q04DX003 (ip), vehicle: DMSO
  T/C: 29 % of control
dose: 3.13 mg/kg/injection, schedule: Q04DX003 (ip), vehicle: DMSO
  T/C: -77 % of control
dose: 6.25 mg/kg/injection, schedule: Q04DX003 (ip), vehicle: DMSO
  T/C: -33 % of control
dose: 12.5 mg/kg/injection, schedule: Q04DX003 (ip), vehicle: DMSO
  T/C: 2 % of control

## N#CC(C#N)=NNc1ccc2cn[nH]c2c1
dose: 50.0 mg/kg/injection, schedule: Q04DX003 (ip), vehicle: Klucel (hydroxypropylcellulose) (HPC)
  T/C: -6 % of control
dose: 100.0 mg/kg/injection, schedule: Q04DX003 (ip), vehicle: Klucel (hydroxypropylcellulose) (HPC)
  T/C: 117 % of control and 124 % of control
